These results are taken from ChEMBL document CHEMBL1201862, “PubChem BioAssay data set” (2004).

Molecules are shown by their SMILES. Active and inactive are the calls of the source. Bounds are passed on as bounds.

Assay [1] concerns the target DNA damage-inducible transcript 3 protein (Mus musculus, UniProt P35639). Type of assay: functional, Cricetulus griseus.
The nature of assay [2]: DRD fibroblast viability loss – cell-based, non-viral oncogenic, luminescence, dose response (AID 1934). It counts as functional. The following applies: Homo sapiens.
Assay [3] can be described thus: HIV-1 Vif–A3G interaction blockers – biochemical, TR-FRET, GST-Vif 1-94, biotin-A3G peptide, dose response retest, primary screen (AID 1117319).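 Also: TR-FRET signal of purified GST-Vif binding a biotinylated A3G peptide; inhibitors lower the FRET signal by blocking Vif and A3G binding.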 Type of assay: functional.
Assay [4] addresses Transitional endoplasmic reticulum ATPase (Homo sapiens, UniProt P55072). As to the kind of experiment: p97 ATPase inhibitors, dose response, biochemical (AID 1534).

DNA damage-inducible transcript 3 protein, sequence (P35639 whole entry): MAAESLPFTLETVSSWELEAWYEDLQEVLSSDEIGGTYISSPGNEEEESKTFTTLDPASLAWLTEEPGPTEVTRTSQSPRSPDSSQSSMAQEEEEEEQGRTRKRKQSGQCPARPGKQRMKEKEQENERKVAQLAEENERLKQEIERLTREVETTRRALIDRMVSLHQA
Transitional endoplasmic reticulum ATPase, sequence (P55072 whole entry): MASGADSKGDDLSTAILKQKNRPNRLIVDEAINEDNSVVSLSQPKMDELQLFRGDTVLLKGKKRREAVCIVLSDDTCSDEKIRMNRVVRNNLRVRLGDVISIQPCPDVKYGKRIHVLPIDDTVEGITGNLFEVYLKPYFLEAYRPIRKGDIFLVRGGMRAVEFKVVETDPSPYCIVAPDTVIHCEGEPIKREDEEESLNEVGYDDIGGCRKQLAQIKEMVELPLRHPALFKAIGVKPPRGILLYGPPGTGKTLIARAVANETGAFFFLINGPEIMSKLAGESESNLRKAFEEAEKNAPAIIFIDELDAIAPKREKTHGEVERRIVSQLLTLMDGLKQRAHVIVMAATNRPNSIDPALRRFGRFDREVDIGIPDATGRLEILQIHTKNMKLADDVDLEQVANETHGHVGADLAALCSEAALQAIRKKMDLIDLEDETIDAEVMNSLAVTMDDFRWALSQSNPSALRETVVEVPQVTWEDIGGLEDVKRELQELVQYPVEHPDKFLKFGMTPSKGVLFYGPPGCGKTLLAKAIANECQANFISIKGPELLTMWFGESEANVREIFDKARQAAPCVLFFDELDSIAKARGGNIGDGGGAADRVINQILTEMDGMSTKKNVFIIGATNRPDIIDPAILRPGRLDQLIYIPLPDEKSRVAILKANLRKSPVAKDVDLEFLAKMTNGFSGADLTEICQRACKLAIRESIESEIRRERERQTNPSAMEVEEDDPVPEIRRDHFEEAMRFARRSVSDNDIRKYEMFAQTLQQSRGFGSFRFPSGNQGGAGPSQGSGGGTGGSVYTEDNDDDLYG

Take `CCc1nnc(NS(=O)(=O)c2ccc(NC(=S)NC(=O)/C=C/c3ccc(C(C)C)cc3)cc2)s1`: the “Absolute IC50 (CHOP)” value in assay [1] came out at 10 µM.

As a reminder, the EC50 is the midpoint of the concentration-response curve. Usually IC50 stands for the concentration at which inhibition is half-maximal. In the case of `O=C(/C=C/c1ccco1)Nc1ccc(Oc2ccccc2)cc1`, the concentration giving a half-maximal response (EC50) in assay [2] is 18.1 µM (active). Further, the IC50 in assay [3] was > 100 µM (active).

`CC1CC(=O)c2c(cc3c(-c4c(O)cc(O)c5c(O)c6c(cc45)OC(C)CC6=O)c(O)cc(O)c3c2O)O1` (centres undefined) [CEPHALOCHROMIN]: the IC50 in assay [4] is on record as 43.9 µM (not active).
